According to US20130045952A1, “ABA Receptor Agonists for Increased Plant Stress Resistance” (Van Andel Research Institute, priority 2011, published 2013):

Legend:
His6-PYR1 / biotin-HAB1 = target: T1, His6-PYR1 / biotin-HAB1 (Arabidopsis thaliana, UniProt O49686); test: AlphaScreen dose response, PYR1-HAB1 interaction; format: biochemical; conditions: 100 nM His6-PYR1, 100 nM biotin-PP2C, 0-100 μM agonist; from dose response curves
T1 construct: made in house; host or cells: E. coli (stated for the PP2Cs; not expressly for PYR1)
T1 sequence (O49686 1-191): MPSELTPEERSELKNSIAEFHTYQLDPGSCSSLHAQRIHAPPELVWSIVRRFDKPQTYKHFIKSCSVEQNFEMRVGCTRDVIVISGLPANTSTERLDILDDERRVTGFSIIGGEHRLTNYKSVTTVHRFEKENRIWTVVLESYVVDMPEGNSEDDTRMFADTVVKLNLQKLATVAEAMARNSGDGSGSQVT
T1 sequence (Q9CAJ0 172-511 partner limits assumed): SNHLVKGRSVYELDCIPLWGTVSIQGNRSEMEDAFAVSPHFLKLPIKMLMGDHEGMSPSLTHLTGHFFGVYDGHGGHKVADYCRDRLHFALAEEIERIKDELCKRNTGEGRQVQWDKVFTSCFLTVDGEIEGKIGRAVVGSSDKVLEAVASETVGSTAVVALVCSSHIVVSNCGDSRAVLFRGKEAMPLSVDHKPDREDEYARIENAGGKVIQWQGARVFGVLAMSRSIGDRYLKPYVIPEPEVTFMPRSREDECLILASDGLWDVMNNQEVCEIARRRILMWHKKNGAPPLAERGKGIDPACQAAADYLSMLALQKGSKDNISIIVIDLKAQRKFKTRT
Description: (§1) Interactions between PYR/PYL and PP2Cs were assessed by luminescence-proximity AlphaScreen technology (Perkin Elmer). Briefly, biotinylated PP2Cs were attached to streptavidin-coated donor beads, and H6-tagged PYR/PYL receptors were attached to nickel-chelated acceptor beads. The donor and acceptor beads were brought into proximity by the interactions between PYR/PYLs and PP2Cs, which were measured with and without ligands. When excited by a laser beam of 680 nm, the donor beam emits singlet oxygen that activates thioxene derivatives in the acceptor beads, which releases photons of 520-620 nm as the binding signal. The experiments were conducted with 100 nM of PP2Cs and PYR/PYL proteins in the presence of 5 ug/ml donor and acceptor beads in a buffer of 50 mM MOPS, pH7.4, 50 mM NaF, 50 mM CHAPS, and 0.1 mg/ml bovine serum albumin. The results were based on an average of three experiments with standard errors typically less than 10% of the measurements.
The results shown in Table 5b were calculated from the dose response curves of the dependence of the interaction between 100 nM His6-PYR1 and 100 nM biotin-PP2C on the presence of 0-100 μM agonists determined by AlphaScreen luminescence proximity assay. Key (EC50 in μM): ++++=<5.0 μM; +++=5-10 μM; ++=10-20 μM; and +=>20-60 μM.

[1] = tested on: PYL4 / PP2Cs (HAB1, ABI1, ABI2); test: In vitro PYL4-PP2C interaction; format: biochemical; conditions: purified proteins in vitro
Description: To determine the biochemical basis of these observations, we used purified proteins of PYR1 and PYL1 to PYL6 to measure their interactions with three PP2Cs, HAB1, ABI1, and ABI2, in vitro. […] In phosphatase assays, pyrabactin promoted PYR1, PYL1, PYL3, PYL5, and PYL6, but not PYL2 and PYL4, to inhibit all three PP2Cs.
(§2) Mutant proteins were expressed as H6GST-fusion proteins and purified by glutathione sepharose chromatography. Protein-protein interactions were determined by luminescence proximity AlphaScreen assay. Biotinylated PP2C proteins for the luminescence proximity assay were generated by in vivo biotinylation of avitag-PP2C fusion proteins. PP2C phosphatase activity was measured by phosphate release from a SnRK2.6 phosphoprotein.
as §1, with “The experiments were conducted with 100 nM of PP2Cs and PYR/PYL proteins in the presence of 5 ug/ml donor and acceptor beads in a buffer of 50 mM MOPS, pH7.4, 50 mM NaF, 50 mM CHAPS, and 0.1 mg/ml bovine serum albumin. The results were based on an average of three experiments with standard errors typically less than 10% of the measurements.” left out

[2] = tested on: RD29B promoter-LUC reporter; test: Protoplast transient assay, reconstituted ABA signaling pathway, RD29B-LUC reporter; format: cell-based, Arabidopsis thaliana; conditions: Arabidopsis protoplasts
Description: The ABA signal transduction pathway was reconstituted in protoplasts by transient transfection of PYR/PYL receptor, ABI1, SnRK2.6, and ABF2 expression plasmids. Activation of an ABA-inducible RD29B promoter-LUC reporter was determined by luciferase assays normalized for β-glucuronidase activity from a UQ10-GUS reporter.
An ABA-inducible luciferase reporter was constructed by replacing the CBF3 promoter in the CBF3-LUC construct with the promoter region of RD29B, a highly ABA-inducible gene^2. CBF3-LUC, UQ10-GUS and ABI1 protoplast expression plasmid vectors were kindly provided by Jen Sheen (Massachusetts General Hospital, Boston, Mass. 02114).
Protoplasts were isolated from Arabidopsis thaliana ecotype Columbia-0 plants, which were grown on Jiffy7 soil (Jiffy Products Ltd., Canada) in an environment-controlled chamber at 22° C. with a photosynthetically active radiation of 75 μmol m^−2 s^−1 and a day/night cycle of 13 hours light/11 dark. Transient activity assays were performed in Arabidopsis mesophyll protoplasts from Columbia-0 wild-type plants as described by the Sheen laboratory^33. Transfected protoplasts were incubated for 5 hours in light in the presence of 0 or 5 μM (+) ABA and the indicated concentrations of pyrabactin, and then used for measuring LUC and GUS activity. […]

PYL1 I137V = target: T2, PYL1 I137V (Arabidopsis thaliana, UniProt Q8VZS8, I137V); test: PP2C interaction of mutant PYL1 I137V receptors; format: biochemical; conditions: mutation of PYL1 I137 to valine; also in PYL1 A190V or V193I context
T2 construct: PYL1 (residues 36-211), PYL2 (residues 14-188), and HAB1 (residues 172-511) were prepared as recombinant proteins in E. coli; made in house; host or cells: E. coli (stated for PYL1 in general)
Description: One key question is why pyrabactin adopts different conformations between PYL1 and PYL2. The ligand binding pockets of PYL2 and PYL1 only differ in three residues (PYL2/PYL1: V114/1137, V166/A190, and V170/1194). […] In contrast, the V114/1137 change in PYL1 collides with the naphthalene ring of pyrabactin in the PYL2 conformation (C—C distance of 2.2 Å) and forces pyrabactin to flip by 180°. […] Due to the very weak pyrabactin agonist activity in wildtype PYL1, this change is most clearly seen in the context of two mutant PYL1 receptors, in which residues A190 and V193 from helix 3 were exchanged against larger side chains that stabilize the binding of pyrabactin.
as §2
Site-directed mutagenesis was carried out using the QuickChange method (Stratagene). Mutations and all plasmid constructs were confirmed by sequencing.

PYR1 = target: T3, PYR1 (Arabidopsis thaliana, UniProt O49686); conditions: in vivo; cited from earlier work
T3 sequence (O49686 1-191): T1 sequence (O49686 1-191)

T2 sequence (Q8VZS8 36-211 I137V): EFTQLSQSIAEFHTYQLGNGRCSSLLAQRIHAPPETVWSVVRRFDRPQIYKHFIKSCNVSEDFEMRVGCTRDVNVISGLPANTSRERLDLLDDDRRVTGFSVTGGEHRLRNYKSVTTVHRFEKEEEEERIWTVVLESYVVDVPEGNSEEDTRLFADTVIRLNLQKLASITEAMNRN

| Compound | EC50 (His6-PYR1 / biotin-HAB1) [µM] | Promotion of PYL4 interaction with the three PP2Cs [1] | PYL2 and ABA-dependent induction of the ABA-inducible reporter ([2]; receptor PYL2, with ABA) | PYR1-dependent induction of the ABA-inducible reporter RD29B-LUG ([2]; receptor PYR1, concentration-dependent) | Response of mutant PYL1 I137V receptor (PYL1 I137V) | Activity at PYR1 in a seed germination assay (PYR1) |
| --- | --- | --- | --- | --- | --- | --- |
| O=C1Nc2ccc(S(=O)(=O)NCc3ccccn3)c3cccc1c23 [Compound 1] | 20 to 60 | – | – | – | – | – |
| CCOC(=O)CNS(=O)(=O)c1ccc2c3c(cccc13)C(=O)N2CC [Compound 2] | 5 to 10 | – | – | – | – | – |
| CCN1C(=O)c2cccc3c(S(=O)(=O)NC[C@@H]4CCCO4)ccc1c23 [Compound 11] | 5 to 10 | – | – | – | – | – |
| O=S(=O)(NCc1ccccn1)c1ccc(Br)c2ccccc12 [Pyrabactin, pyrabactin] | < 5 | promoted interaction | inhibited | promoted | pyrabactin-inhibited receptor | selective agonist |
